Results published in patent US12691070B2, “Cationic lipids and preparation method thereof” (RiboX Therapeutics HK Limited, priority 2023, dated 2026).

Experiments:
Hep G2 cells [1] = experiment: In vitro expression of firefly-luciferase, Hep G2; assay type: cell-based
Summary of the method: (§1)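 Luminescence from cell lysates reports expression: luciferase activity was measured 72 h after transfection with 100 ng/mL RNA-LNPs encoding firefly luciferase.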

[2] = LNP size and polydispersity index (PDI) by dynamic light scattering; assay type: physicochemical; settings: for Size: in nm (unit assumed)
Summary of the method: (§2)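 Dynamic light scattering and zeta potential measurements were run on PBS-dialyzed LNPs, which had been formed by microfluidic mixing at 12 ml/min with final lipid at 1.5 mM to 6 mM. RNA content and percent encapsulation were determined by Ribogreen with and without Triton X-100.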

[3] = tested on: Alanine Aminotransferase (ALT); experiment: Liver enzyme elevation in serum, ALT; assay type: in vivo; settings: cirRNA (SEQ ID NO: 1) LNPs, BALB/C mice, intravenous 0.5 MPK
Experimental: (§3) 6-8 week old, female BALB/C mice were injected with 0.5 mg*kg-1 of RNA LNPs by intravenous injection. At 2 and 24 hours post injection, animals were bled and sera concentrations of Alanine Aminotransferase (ALT) and Aspartate Aminotransferase (AST) were determined by a blood chemistry analyzer.

RAW 264.7 cells [4] = experiment: In vitro expression of firefly-luciferase, RAW 264.7; assay type: cell-based
Summary of the method: as §1

RAW 264.7 cells [5] = experiment: In vitro toxicity (CellTiter-Glo cell viability), RAW 264.7; assay type: cell-based;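 note: percent of untreated cells luminescence signal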
Summary of the method: (§4)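 Toxicity of RNA-LNPs (1 μg/mL) is reported as cell viability, calculated from CellTiter-Glo luminescence measured at 72 hours after transfection.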

BALB/C mice [6] = experiment: Local tolerance determination by footpad injection; assay type: in vivo; settings: cirRNA (SEQ ID NO: 1) LNP, 0.175 mg*kg-1 subcutaneous into the footpad, 24 hours post minus prior
Experimental: 6-8 week old, female BALB/C mice were injected with 0.175 mg*kg-1 RNA LNPs by subcutaneous injection into the footpad. Prior to, and 24 hours post injections, injected footpad thickness was determined by a caliper.

[7] = RNA encapsulation efficacy by Quant-IT Ribogreen kit; assay type: physicochemical; settings: for Encapsulation Efficiency %: LNP with cirRNA (SEQ ID NO: 1); for Encapsulation Efficiency: LNP with mRNA (SEQ ID NO: 2)
Summary of the method: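 Ribogreen fluorescence with and without Triton X-100 gave encapsulation as 100% − (intact/lysed) signal; DLS size, PDI and zeta potential measured on a Zetasizer. Particles: 50:10:38.5:1.5 lipid mix, luciferase circRNA or mRNA, lipid:nucleotide 15 or 6, microfluidic assembly at pH 4.5, PBS-dialyzed.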

MCP-I = MCP-I cytokine elevation in serum; assay type: in vivo; settings: cirRNA (SEQ ID NO: 1) LNPs, mice
Experimental: 6-8 week old, female BALB/C mice were injected with 0.5 mg*kg-1 of RNA LNPs by intravenous injection. At 2 and 24 hours post injection, animals were bled and sera concentrations of MCP-I were determined by an immunoassay (Luminex).

Hep G2 cells [8] = experiment: In vitro toxicity (CellTiter-Glo cell viability), Hep G2; assay type: cell-based;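 note: percent of untreated cells luminescence signal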
Summary of the method: as §4

[9] = LNP zeta potential (Zetasizer); assay type: physicochemical
Summary of the method: as §2

BALB/C mice [10] = experiment: In vivo expression, whole-body luminescence (IVIS)
Experimental: 6-8 week old, female BALB/C mice were injected with 0.05 mg*kg-1 of RNA-LNPs encoding for firefly-luciferase by intravenous injection. At 6 hours post injection, animals were intraperitoneally injected with 15 mg/ml of Luciferin substrate and whole-body luminescence was determined by a bioluminescent in vivo imaging system (IVIS).

[11] = tested on: Aspartate Aminotransferase (AST); experiment: Liver enzyme elevation in serum, AST; assay type: in vivo; settings: cirRNA (SEQ ID NO: 1) LNPs, BALB/C mice, intravenous 0.5 MPK
Experimental: as §3

[12] = cirRNA (SEQ ID NO: 1) LNPs, firefly-luciferase luminescence, Hep G2 cells
[13] = mRNA (SEQ ID NO: 2) LNP, 100 ng/mL, 72 hours post transfection, luciferase activity
[14] = cirRNA (SEQ ID NO: 1) LNPs, firefly-luciferase luminescence, RAW 264.7 cells
[15] = cirRNA (SEQ ID NO: 1) LNPs, RAW 264.7 cells
[16] = mRNA (SEQ ID NO: 2) LNP, 1 μg/mL, 72 hours post transfection
[17] = cirRNA (SEQ ID NO: 1) LNPs, Hep G2 cells
[18] = cirRNA (SEQ ID NO: 1) LNPs, BALB/C mice
[19] = mRNA (SEQ ID NO: 2) LNP, 0.05 mg*kg-1 intravenous, 6 hours post injection

PDI ([2]; LNP with cirRNA (SEQ ID NO: 1))	Size ([2]; LNP with cirRNA (SEQ ID NO: 1))	PDI ([2]; LNP with mRNA (SEQ ID NO: 2))	Size ([2]; LNP with mRNA (SEQ ID NO: 2))	Encapsulation Efficiency % [7] [%]	Encapsulation Efficiency [7] [%]	Zeta (mV) ([9]; LNP with cirRNA (SEQ ID NO: 1))	Zeta (mV) ([9]; LNP with mRNA (SEQ ID NO: 2))	Structure (SMILES)	In vitro Expression HepG2 (Hep G2 cells [1]; [12])	In vitro Expression HepG2 (Hep G2 cells [1]; [13])	In vitro Expression RAW (RAW 264.7 cells [4]; [14])	In vitro Expression RAW (RAW 264.7 cells [4]; [13])	In vitro Viability RAW (RAW 264.7 cells [5]; [15]) [%]	In vitro Viability RAW (RAW 264.7 cells [5]; [16]) [%]	In vitro Viability HepG2 (Hep G2 cells [8]; [17]) [%]	In vitro Viability HepG2 (Hep G2 cells [8]; [16]) [%]	In vivo Expression (Whole Body) (BALB/C mice [10]; [18])	In vivo Expression (Whole Body) (BALB/C mice [10]; [19])	other results
0.06	87.2	0.03302	106.5	96	93.16	−2.24	4.201	CCCCCCCCC(CCCCCC)C(=O)OCCCCCCCCN(CCCCCCCCOC(=O)C(CCCCCC)CCCCCCCC)CCOC(=O)NCCN(C)C (stereo not drawn) [Lipid 6, 10-(8-((2-hexyldecanoyl)oxy)octyl)-2-methyl-6-oxo-7-oxa-2,5,10-triazaoctadecan-18-yl 2-hexyldecanoate]	1.82E+08	2.28E+08	1.11E+07	1.21E+07	100	77	89	113	1.21E+09	1.91E+09	ALT in Sera (IU/L) 2 hours After 0.5 MPK Injection [3]: 99.33 IU/L; ALT in Sera (IU/L) 24 hours After 0.5 MPK Injection [3]: 181.67 IU/L; Footpad Thickness (24 h−0 h, mm) (BALB/C mice [6]): 0.44 mm; MCP-I in Sera 2 hours After 0.5 MPK Injection (MCP-I): 7009.50 pg/mL; MCP-I in Sera 24 hours After 0.5 MPK Injection (MCP-I): 1653.42 pg/mL; AST in Sera (IU/L) 2 hours After 0.5 MPK Injection [11]: 316.00 IU/L; AST in Sera (IU/L) 24 hours After 0.5 MPK Injection [11]: 411.00 IU/L
0.04	91.2	0.09046	67.1	95	88	1.26	12.6	CCCCCCCCC(CCCCCC)C(=O)OCCCCCCCCN(CCCCCCCCCCC(=O)OCCCCCC)CCOC(=O)NCCN(C)C (stereo not drawn) [Lipid 43, hexyl 10-(8-((2-hexyldecanoyl)oxy)octyl)-2-methyl-6-oxo-7-oxa-2,5,10-triazahenicosan-21-oate]	1.75E+04	1.33E+06	1.10E+05	9.60E+04	97	88	97	97	6.22E+08	1.98E+08	ALT in Sera (IU/L) 2 hours After 0.5 MPK Injection [3]: 57.07 IU/L; ALT in Sera (IU/L) 24 hours After 0.5 MPK Injection [3]: 41.53 IU/L; Footpad Thickness (24 h−0 h, mm) (BALB/C mice [6]): 0.33 mm; MCP-I in Sera 2 hours After 0.5 MPK Injection (MCP-I): 5561.83 pg/mL; MCP-I in Sera 24 hours After 0.5 MPK Injection (MCP-I): 17.57 pg/mL; AST in Sera (IU/L) 2 hours After 0.5 MPK Injection [11]: 135.60 IU/L; AST in Sera (IU/L) 24 hours After 0.5 MPK Injection [11]: 88.97 IU/L
0.2338	112.8			93		2.594		CCCCCCCCC(CCCCCC)C(=O)OCCCCCCCCN(CCCCCCCCOC(=O)C(CCCCCC)CCCCCCCC)CCCOC(=O)NCCN1CCN(C)CC1 (stereo not drawn) [Lipid 377]	2.55E+06		1.05E+05		85		71		8.84E+06		
0.2637	130.6			93		6.729		CCCCCCCCC(CCCCCC)C(=O)OCCCCCCCCN(CCCCCCCCOC(=O)C(CCCCCC)CCCCCCCC)CCCOC(=O)NCCCN(C)C (stereo not drawn) [Lipid 378]	3.39E+06		6.58E+05		75		26		8.79E+06		
0.1919	117.2			92		3.38		CCCCCCCCC(CCCCCC)C(=O)OCCCCCCCCN(CCCCCCCCOC(=O)C(CCCCCC)CCCCCCCC)CCCOC(=O)NCCN1CCCC1 (stereo not drawn) [Lipid 379]	1.16E+07		1.60E+06		72		45		2.86E+07		
0.2452	145.3			94		4.75		CCCCCCCCC(CCCCCC)C(=O)OCCCCCCCCN(CCCCCCCCOC(=O)C(CCCCCC)CCCCCCCC)CCCOC(=O)NCCN1CCC1 (stereo not drawn) [Lipid 382]	3.97E+05		5.69E+04		84		42		4.22E+06		
0.2423	135.9			96		8.213		CCCCCCCCC(CCCCCC)C(=O)OCCCCCCCCN(CCCCCCCCOC(=O)C(CCCCCC)CCCCCCCC)CCCNCCN(C)C (stereo not drawn) [Lipid 384]	2.57E+06		3.15E+05		88		81		1.15E+07		
0.2458	159			94		11.28		CCCCCCCCC(CCCCCC)C(=O)OCCCCCCCCN(CCCCCCCCOC(=O)C(CCCCCC)CCCCCCCC)CCCNCCCN(CC)CC (stereo not drawn) [Lipid 385]	1.31E+05		1.37E+04		80		74		1.79E+06		
0.2901	145.2	0.2719	118	74	83.95	1.916	10.76	CCCCC/C=C\C/C=C\CCCCCCCCN(CCCCCCCC/C=C\C/C=C\CCCCC)CCOC(=O)CCCN(C)C [Lipid A, reference compound]	1.90E+06	3.08E+07		5.86E+06		96		108		2.13E+08	
0.2623	93.61	0.2472	80.28	88	86.87	3.811	0.02157	CCCCC/C=C\C/C=C\CCCCCCCCN(CCCCCCCC/C=C\C/C=C\CCCCC)CCOC(=O)[C@@H](N)Cc1c[nH]cn1 [Lipid B, reference compound]	8.71E+05	4.21E+05		1.32E+05		92		97		3.42E+08	
